According to US20020028942A1, “Novel process and compound” (priority 1997, published 2002):
Where a name gives a salt, the structure may show the parent alone. Blank lines part the entries; values can stand above or below the compound they belong to.

Tests used:
[1] = Stability of aqueous solutions; assay type: physicochemical
Description: The feedstock for freeze-drying may be prepared conveniently by, for example, dissolution of paroxetine free base in aqueous hydrochloric acid, although other solid forms of paroxetine hydrochloride may also be dissolved. For example, the feedstock may be prepared by dissolving amorphous paroxetine hydrochloride or a crystalline paroxetine hydrochloride anhydrate, hydrate or solvate in suitable solvent. The solvent used may be pure water or a mixture of water with compatible organic solvents. […] Suitable concentrations of paroxetine hydrochloride for freeze-drying are in the range 1 to 30% by weight, preferably in the range 5% to 20% by weight.
Processing at elevated temperature may be employed to reduce the risk of unwanted crystallisation during processing but is not essential.

[2] = Solubility / dissolution in water; assay type: physicochemical
Description: Paroxetine hydrochloride has been described in the literature as a crystalline hemihydrate (see EP-A-0223403 of Beecham Group) and as various crystalline anhydrate forms (see WO96/24595 of SmithKline Beecham plc). These known forms are not ideally suited for all pharmaceutical applications. […] Furthermore, liquids can be dispensed into unit dosages more conveniently and precisely than solids, and the use of liquid feedstocks reduces hazards associated with dust. In addition, the known solid forms of paroxetine hydrochloride are relatively insoluble and are slow to dissolve completely.
The product is homogenous without any further processing and is obtained in 100% yield, a higher yield than is possible in any crystallisation process.

[3] = known forms, well documented in the literature; cited from earlier work

dissolution of the freeze-dried product [2]: dissolves quickly and completely
SMILES: Fc1ccc([C@@H]2CCNC[C@H]2COc2ccc3c(c2)OCO3)cc1 [freeze-dried paroxetine hydrochloride, paroxetine hydrochloride]
stability of reconstituted aqueous solution ([1]; freeze-dried product dispersed in water, concentration for parenteral dosage, supersaturated with respect to hemihydrate): sufficiently stable for liquid dispensing

SMILES: Fc1ccc([C@@H]2CCNC[C@H]2COc2ccc3c(c2)OCO3)cc1 [paroxetine hydrochloride hemihydrate, Paroxetine hydrochloride hemihydrate]
stability of aqueous solution of a concentration suitable for freeze-drying ([1]; highly supersaturated with respect to paroxetine hydrochloride hemihydrate): sufficiently stable for sterile filtration and liquid processing

SMILES: Fc1ccc([C@@H]2CCNC[C@H]2COc2ccc3c(c2)OCO3)cc1 [paroxetine hydrochloride, (−)trans isomer of 4-(4′-fluorophenyl)-3-(3′,4′-methylenedioxyphenoxymethyl)-piperidine]
solubility in water [3]: low solubility in water
stability of aqueous solution ([1]; ambient temperature, once dissolved, in the absence of seeds of a crystalline form): stable at ambient temperature for many days
